Measurements from ChEMBL document CHEMBL3525974 (Drug Metab Dispos, 2012).

Key:
Assay type in all cases: ADME
Liver microsome [1] = test: Drug metabolism in human liver microsomes treated with lopinavir at 30 uM preincubated for 5 mins prior NADPH addition measured after 50 mins by MS/MS spectroscopy
Liver microsome [2] = test: Retention time in human liver microsomes at 30 uM preincubated for 5 mins prior NADPH addition measured after 50 mins by UPLC-TOFMS analysis
Plasma [3] = test: Maximum plasma concentration in healthy human at 400 mg co-administered with 50 mg ritonavir; parameters: dose 400 mg
Plasma [4] = test: Maximum plasma concentration in healthy human at 400 mg; parameters: dose 400 mg

Compound | Drug metabolism (Liver microsome [1]) | Retention_time (Liver microsome [2]) | Cmax (Plasma [3]) | Cmax (Plasma [4])
CC(C)[C@@H](C(=O)N[C@@H](Cc1ccccc1)C[C@H](O)[C@H](Cc1ccccc1)NC(=O)/C=N/NC(N)=O)N1CCCNC1=O | metabolite_detected | 4.99 min |  | 
Cc1cccc(C)c1OCC(=O)N[C@@H](Cc1ccccc1)[C@@H](O)C[C@H](Cc1ccccc1)NC(=O)[C@H](C(C)C)N1CCCNC1=O [LOPINAVIR] |  |  | 5500 ng/mL | 100 ng/mL
